Laboratory results as given in patent publication US7449484B2, “Compounds” (SmithKline Beecham Corporation, priority 2000, dated 2008).

Columns and labels:
[1] = system: murine airpouch granuloma; assay: Murine Air Pouch Granuloma Model of angiogenesis in vivo; design: species or system mice; conditions: positive control
From the text: Measurement of Angiogenesis In Vivo—Murine Air Pouch Granuloma Model:
The murine airpouch granuloma model of chronic inflammation (Kimura et al., 1985, J. Pharmacobio-Dyn., 8:393-400; Colville-Nash et al., 1995, J. Pharm. and Exp. Ther., 274:1463-1472) whose disclosure is incorporated herein by reference in its entirety, is characterized by inflammatory cell influx, fibrous tissue proliferation and intense angiogenesis. […] In addition, angiogenesis can be accurately quantitated by a vascular casting method.
Day 1, mice are anesthetized using Aerrane (isoflurane) gas (5%) or other approved methods, after which 3 mls of air is injected into the dorsal subcutaneous tissue using a 27 g needle. Mice are allowed to recover. […]
When the granuloma is removed it is weighed and then dried for 3 days at 45° C. and reweighed. […] The carmine content is then determined against a carmine red standard curve (0.5 to 2 mg/ml) generated in extracted tissue from non carmine treated animals and read at 490 nm. Sample and standard values are determined typically using DeltaSoft Elisa analysis software (Biometallics Inc., Princeton, N.J.). […]
The effect of compounds on vascular density was typically measured for 6 days after induction of the granuloma. This time point has been determined to be at or near the peak of angiogenesis. […] Medroxyprogesterone had no effect on granuloma size as measured by dry weight.

melting point [°C]	Compound	maximum reduction (vascular density) ([1]; measured 6 days after induction of the granuloma) [%]	effect on granuloma size as measured by dry weight ([1]; murine air pouch granuloma)
–	medroxyprogesterone	50	no effect
258 to 259	CCOc1ccc2cc(-c3nc(C(C)(C)C)[nH]c3-c3ccncc3)ccc2c1	–	–
